# Structures can show the parent of a compound that is named as a salt.
# Molecular target: T1, recombinant human LTA4 hydrolase (rhLTA4H) (Homo sapiens, UniProt P09960)
# T1 construct: made in house; host or cells: Spodoptera frugiperda (Sf-9) cells, baculovirus (pFastBac1)
# T1 sequence (P09960 1-611): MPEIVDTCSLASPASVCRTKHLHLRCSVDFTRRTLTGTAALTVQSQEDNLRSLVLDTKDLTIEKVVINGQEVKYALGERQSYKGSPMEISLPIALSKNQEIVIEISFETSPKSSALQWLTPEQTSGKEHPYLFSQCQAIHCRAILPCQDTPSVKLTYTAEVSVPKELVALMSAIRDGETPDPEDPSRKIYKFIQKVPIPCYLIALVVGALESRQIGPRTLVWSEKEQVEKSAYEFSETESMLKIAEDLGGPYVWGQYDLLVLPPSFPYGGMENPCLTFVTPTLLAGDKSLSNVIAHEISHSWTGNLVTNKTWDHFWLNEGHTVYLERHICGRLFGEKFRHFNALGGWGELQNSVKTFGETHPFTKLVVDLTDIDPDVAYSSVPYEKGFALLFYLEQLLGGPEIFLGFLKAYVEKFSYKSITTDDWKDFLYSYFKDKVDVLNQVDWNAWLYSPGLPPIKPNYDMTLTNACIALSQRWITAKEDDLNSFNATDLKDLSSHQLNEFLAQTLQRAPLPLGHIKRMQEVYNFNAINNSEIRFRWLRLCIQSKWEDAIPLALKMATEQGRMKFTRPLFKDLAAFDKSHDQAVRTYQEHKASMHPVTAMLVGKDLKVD
# Assay: Recombinant Human LTA4 Hydrolase Assay for LTA4 Hydrolase Inhibitor Activity
# Type: biochemical
# Settings: average of results obtained; LTB4 quantified by enzyme-linked immunoassay
# Protocol: Biological Methods: Recombinant Human LTA4 Hydrolase Assay for LTA4 Hydrolase Inhibitor Activity
# Compounds of the present invention were tested for LTA4 hydrolase inhibitor activity against recombinant human LTA4 hydrolase (rhLTA4H). Vectors were prepared and used to express rhLTA4H essentially as follows: LTA4 hydrolase encoding DNA was amplified by polymerase chain reaction (PCR) using a human placental cDNA library as a template. Oligonucleotide primers for the PCR reaction were based on the 5′-end, and the complement of the 3′-end, of the published nucleotide sequence for the coding region of the human LTA4 hydrolase gene (C. D. Funk et al., Proc. Natl. Acad. Sci. USA 1987, 84:6677-6681). The amplified 1.9 kb DNA fragment encoding LTA4 hydrolase was isolated and cloned into the pFastBac1 vector (Invitrogen). Recombinant baculovirus was generated as described by the manufacturer, and used to infect Spodoptera frugiperda (Sf-9) cells. Recombinant LTA4 hydrolase enzyme was purified from the infected Sf-9 cells essentially as described by J. K. Gierse et al. (Protein Expression and Purification 1993, 4:358-366). The purified enzyme solution was adjusted to contain 0.29 mg/mL LTA4 hydrolase, 50 mM Tris (pH 8.0), 150 mM NaCl, 5 mM dithiothreitol, 50% glycerol, and EDTA-free Complete protease inhibitor cocktail (Roche). The specific activity of the enzyme was about 3.8 μmol/min/mg.
# LTA4 substrate was prepared from the methyl ester of LTA4 (Cayman Chemical) by treatment with 67 equiv of NaOH under nitrogen at rt for 40 min. The LTA4 substrate in its free acid form was kept frozen at −80° C. until needed. Each compound was diluted to different concentrations in assay buffer (0.1 M potassium phosphate (pH 7.4), 5 mg/mL fatty acid free BSA) containing 10% DMSO. A 25-uL aliquot of each compound dilution was incubated for 10 min at rt with an equal volume of assay buffer containing 36 ng of recombinant human LTA4H. The solution was then adjusted to 200 μL with assay buffer. LTA4 (free acid) was thawed and diluted in assay buffer to a concentration of 357 ng/mL, and 25 μL (9 ng) of LTA4 substrate was added to the reaction mixture (total volume=225 μL) at time zero. Each reaction was carried out at rt for 10 min. The reaction was stopped by diluting 10 μL of the reaction mixture with 200 μL of assay buffer. LTB4 was quantified in the diluted sample by a commercially available enzyme-linked immunoassay (Cayman Chemical Co.), as recommended by the manufacturer. Positive controls, under essentially identical conditions but without addition of an inhibitor compound, and negative controls, containing all assay components except enzyme, were routinely run in each experiment. […]
# Results for the compounds tested in this assay are presented in Table 1 as an average of results obtained.
row,Ki [nM],SMILES
1,35,"NC(=O)N1CC2CCN(Cc3ccc(Oc4nc5ccccc5s4)cc3)CC2C1 (racemic) [Example 141, (±)-5-[4-(Benzothiazol-2-yloxy)-benzyl]-octahydro-pyrrolo[3,4-c]pyridine-2-carboxylic acid amide]"
2,53,"NC(=O)N1CC2CCN(Cc3ccc(Oc4nc5ccccc5s4)cc3)CC2C1 (single isomer, unassigned; (+)) [Example 142A, (+)-5-[4-(Benzothiazol-2-yloxy)-benzyl]-octahydro-pyrrolo[3,4-c]pyridine-2-carboxylic acid amide]"
3,95,"NC(=O)N1CC2CCN(Cc3ccc(Oc4nc5ccccc5s4)cc3)CC2C1 (single isomer, unassigned; (-)) [Example 142B, (−)-5-[4-(Benzothiazol-2-yloxy)-benzyl]-octahydro-pyrrolo[3,4-c]pyridine-2-carboxylic acid amide]"
4,6,"CC(=O)N1C[C@@H]2C[C@H]1CN2Cc1ccc(Oc2nc3ccccc3s2)cc1 [Example 1, (S,S)-1-{5-[4-(Benzothiazol-2-yloxy)-benzyl]-2,5-diaza-bicyclo[2.2.1]hept-2-yl}-ethanone]"
5,54,"c1ccc2sc(Oc3ccc(CN4C[C@@H]5C[C@H]4CN5)cc3)nc2c1 [Example 1B, (S,S)-2-[4-(2,5-Diaza-bicyclo[2.2.1]hept-2-ylmethyl)-phenoxy]-benzothiazole hydrochloride]"
6,508,"CC(=O)N1C[C@@H]2C[C@H]1CN2Cc1cccc(Oc2nc3ccccc3s2)c1 [Example 2, (S,S)-1-{5-[3-(Benzothiazol-2-yloxy)-benzyl]-2,5-diaza-bicyclo[2.2.1]hept-2-yl}-ethanone]"
7,7,"CC(=O)N1C[C@H]2C[C@@H]1CN2Cc1ccc(Oc2nc3ccccc3s2)cc1 [Example 3, (R,R)-1-{5-[4-(Benzothiazol-2-yloxy)-benzyl]-2,5-diaza-bicyclo[2.2.1]hept-2-yl}-ethanone]"
8,163,"CC(=O)N1C[C@@H]2C[C@H]1CN2Cc1ccc(Cc2nc3ccccc3s2)cc1 [Example 4, (S,S)-1-[5-(4-Benzothiazol-2-ylmethyl-benzyl)-2,5-diaza-bicyclo[2.2.1]hept-2-yl]-ethanone]"
9,260,"c1ccc2sc(Cc3ccc(CN4C[C@@H]5C[C@H]4CN5)cc3)nc2c1 [Example 4D, (S,S)-2-[4-(2,5-Diaza-bicyclo[2.2.1]hept-2-ylmethyl)-benzyl]-benzothiazole dihydrochloride]"
10,35,"CC(=O)N[C@H]1C[C@H]2CC[C@@H](C1)N2Cc1ccc(Cc2nc3ccccc3s2)cc1 [Example 5, meso-endo-N-[8-(4-Benzothiazol-2-ylmethyl-benzyl)-8-aza-bicyclo[3.2.1]oct-3-yl]-acetamide]"
11,50,"CC(=O)N[C@H]1C[C@H]2CC[C@@H](C1)N2Cc1ccc(Cc2nc3ccccc3o2)cc1 [Example 6, meso-endo-N-[8-(4-Benzooxazol-2-ylmethyl-benzyl)-8-aza-bicyclo[3.2.1]oct-3-yl]-acetamide]"
12,13,"CC(=O)N1C[C@@H]2C[C@H]1CN2CCc1ccc(Oc2nc3ccccc3s2)cc1 [Example 7, (S,S)-1-(5-{2-[4-(Benzothiazol-2-yloxy)-phenyl]-ethyl}-2,5-diaza-bicyclo[2.2.1]hept-2-yl)-ethanone]"
13,10,"c1ccc2sc(Oc3ccc(CCN4C[C@@H]5C[C@H]4CN5)cc3)nc2c1 [Example 7B, (S,S)-2-{4-[2-(2,5-Diaza-bicyclo[2.2.1]hept-2-yl)-ethyl]-phenoxy}-benzothiazole hydrochloride]"
14,206,"CC(=O)N1C[C@@H]2C[C@H]1CN2CCc1cccc(Oc2nc3ccccc3s2)c1 [Example 8, (S,S)-1-(5-{2-[3-(Benzothiazol-2-yloxy)-phenyl]-ethyl}-2,5-diaza-bicyclo[2.2.1]hept-2-yl)-ethanone]"
15,3,"CC(=O)N1C[C@@H]2C[C@H]1CN2CCOc1ccc(Oc2nc3ccccc3s2)cc1 [Example 9, (S,S)-1-(5-{2-[4-(Benzothiazol-2-yloxy)-phenoxy]-ethyl}-2,5-diaza-bicyclo[2.2.1]hept-2-yl)-ethanone]"
16,43,"c1ccc2sc(Oc3ccc(OCCN4C[C@@H]5C[C@H]4CN5)cc3)nc2c1 [Example 9B, (S,S)-2-{4-[2-(2,5-Diaza-bicyclo[2.2.1]hept-2-yl)-ethoxy]-phenoxy}-benzothiazole trifluoroacetate]"
17,10,"O=C(CO)N1C[C@@H]2C[C@H]1CN2Cc1ccc(Oc2nc3ccccc3s2)cc1 [Example 10, (S,S)-1-{5-[4-(Benzothiazol-2-yloxy)-benzyl]-2,5-diaza-bicyclo[2.2.1]hept-2-yl}-2-hydroxy-ethanone]"
18,13,"O=C(N1C[C@@H]2C[C@H]1CN2Cc1ccc(Oc2nc3ccccc3s2)cc1)C1(O)CC1 [Example 11, (S,S)-{5-[4-(Benzothiazol-2-yloxy)-benzyl]-2,5-diaza-bicyclo[2.2.1]hept-2-yl}-(1-hydroxy-cyclopropyl)-methanone]"
19,31,"CC(C)(O)C(=O)N1C[C@@H]2C[C@H]1CN2Cc1ccc(Oc2nc3ccccc3s2)cc1 [Example 12, (S,S)-1-{5-[4-(Benzothiazol-2-yloxy)-benzyl]-2,5-diaza-bicyclo[2.2.1]hept-2-yl}-2-hydroxy-2-methyl-propan-1-one]"
20,34,"O=C([C@H]1CCOC1)N1C[C@@H]2C[C@H]1CN2Cc1ccc(Oc2nc3ccccc3s2)cc1 [Example 13, (S,S,S)-{5-[4-(Benzothiazol-2-yloxy)-benzyl]-2,5-diaza-bicyclo[2.2.1]hept-2-yl}-(tetrahydro-furan-3-yl)-methanone]"
21,9,"CC(C)(C)OC(=O)NCC(=O)N1C[C@@H]2C[C@H]1CN2Cc1ccc(Oc2nc3ccccc3s2)cc1 [Example 14, (S,S)-(2-{5-[4-(Benzothiazol-2-yloxy)-benzyl]-2,5-diaza-bicyclo[2.2.1]hept-2-yl}-2-oxo-ethyl)-carbamic acid tert-butyl ester]"
22,18,"O=C(CO)N1C[C@@H]2C[C@H]1CN2CCc1ccc(Oc2nc3ccccc3s2)cc1 [Example 15, (S,S)-1-(5-{2-[4-(Benzothiazol-2-yloxy)-phenyl]-ethyl}-2,5-diaza-bicyclo[2.2.1]hept-2-yl)-2-hydroxy-ethanone]"
23,11,O=C(N1C[C@@H]2C[C@H]1CN2CCc1ccc(Oc2nc3ccccc3s2)cc1)C1(O)CC1 [Example 16]
24,11,"CC(C)(O)C(=O)N1C[C@@H]2C[C@H]1CN2CCc1ccc(Oc2nc3ccccc3s2)cc1 [Example 17, (S,S)-1-(5-{2-[4-(Benzothiazol-2-yloxy)-phenyl]-ethyl}-2,5-diaza-bicyclo[2.2.1]hept-2-yl)-2-hydroxy-2-methyl-propan-1-one]"
25,66,"O=C(N1C[C@@H]2C[C@H]1CN2CCc1cccc(Oc2nc3ccccc3s2)c1)C1(O)CC1 [Example 18, (S,S)-(5-{2-[3-(Benzothiazol-2-yloxy)-phenyl]-ethyl}-2,5-diaza-bicyclo[2.2.1]hept-2-yl)-(1-hydroxy-cyclopropyl)-methanone]"
26,163,"CC(C)(O)C(=O)N1C[C@@H]2C[C@H]1CN2CCc1cccc(Oc2nc3ccccc3s2)c1 [Example 19, (S,S)-1-(5-{2-[3-(Benzothiazol-2-yloxy)-phenyl]-ethyl}-2,5-diaza-bicyclo[2.2.1]hept-2-yl)-2-hydroxy-2-methyl-propan-1-one]"

# — patent publication US8344008B2 (Janssen Pharmaceutica NV, priority 2007, dated 2013)
